According to ChEMBL document CHEMBL1201862, “PubChem BioAssay data set” (2004):
Structures can show the parent of a compound that is named as a salt.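 1) Cells in 96-well plates. 2) Compound, 48 h, 5 concentrations. 3) Linear interpolation between surrounding doses. 4) Unreached endpoint = highest concentration. The concentration for 50% growth inhibition is given as GI50.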 Activity calls are given as the source filed them. Rule as the data show it: active = GI50 up to about 1.1 µM and inactive = higher.

How the values were obtained:
Test in all cases: growth of human tumour cells (NCI), 48 h
[1] = tested on: MCF7
[2] = tested on: SK-MEL-28
[3] = tested on: SW-620
[4] = tested on: U-251
[5] = tested on: HCT-15
[6] = tested on: OVCAR-3
[7] = tested on: Hs-578T
[8] = tested on: NCI-H226
[9] = tested on: LOX IMVI
[10] = tested on: BT-549
[11] = tested on: OVCAR-8
[12] = tested on: CAKI-1
[13] = tested on: RPMI-8226
[14] = tested on: HCC 2998
[15] = tested on: SF-268
[16] = tested on: COLO 205
[17] = tested on: PC-3
[18] = tested on: K562
[19] = tested on: SK-MEL-2
[20] = tested on: T47D

SMILES: O=C(NCCN1CCOCC1)c1cn2c(ccc3sc4ccccc4c(=O)c32)n1
- GI50 [1]: 7.08 µM (inactive)
- GI50 [2]: 46.9 µM (inactive)
- GI50 [3]: 4.85 µM (inactive)
- GI50 [4]: 10 µM (inactive)
- GI50 [5]: 10.3 µM
- GI50 [6]: > 100 µM (inactive)
- GI50 [7]: 12.2 µM (inactive)
- GI50 [8]: 32 µM (inactive)
- GI50 [9]: 10.3 µM (inactive)
- GI50 [10]: 27.8 µM (inactive)
- GI50 [11]: > 100 µM (inactive)
- GI50 [12]: > 100 µM (inactive)
- GI50 [13]: 8.24 µM (inactive)
- GI50 [14]: 10.1 µM (inactive)
- GI50 [15]: 12.3 µM (inactive)
- GI50 [16]: 7.24 µM (inactive)
- GI50 [17]: 20.1 µM (inactive)
- GI50 [18]: 9.86 µM (inactive)

SMILES: O=C(CNc1ccc(Cl)cc1Cl)NC1C=Cc2ccc(S(=O)(=O)Nc3ccc(Cl)cc3Cl)cc2C1=O (configuration not stated)
- GI50 [1]: > 100 µM (inactive)
- GI50 [2]: > 100 µM (inactive)
- GI50 [3]: > 100 µM (inactive)
- GI50 [4]: > 100 µM (inactive)
- GI50 [19]: > 100 µM (inactive)
- GI50 [5]: > 100 µM
- GI50 [6]: > 100 µM (inactive)
- GI50 [7]: > 100 µM (inactive)
- GI50 [8]: > 100 µM (inactive)
- GI50 [9]: > 100 µM (inactive)
- GI50 [10]: > 100 µM (inactive)
- GI50 [11]: > 100 µM (inactive)
- GI50 [12]: > 100 µM (inactive)
- GI50 [13]: 11 µM (inactive)
- GI50 [14]: > 100 µM (inactive)
- GI50 [15]: > 100 µM (inactive)
- GI50 [16]: > 100 µM (inactive)
- GI50 [17]: > 100 µM (inactive)
- GI50 [18]: > 100 µM (inactive)

SMILES: CCCCCCC(O)C(=O)OC1C2C(CC1(C)C)C(O)C13OC1C(O)C1(CO1)[C@@]23C (some centres not stated)
- GI50 [1]: 36.4 µM (inactive)
- GI50 [2]: 39.3 µM (inactive)
- GI50 [4]: 37.1 µM (inactive)
- GI50 [5]: 81.7 µM
- GI50 [6]: 32.1 µM (inactive)
- GI50 [7]: 28.2 µM (inactive)
- GI50 [9]: 19.2 µM (inactive)
- GI50 [10]: 50.1 µM (inactive)
- GI50 [11]: 69.8 µM (inactive)
- GI50 [12]: > 100 µM (inactive)
- GI50 [13]: 40.9 µM (inactive)
- GI50 [15]: 20.1 µM (inactive)
- GI50 [16]: 49.2 µM (inactive)
- GI50 [20]: 62.5 µM (inactive)
- GI50 [17]: 17.3 µM (inactive)
- GI50 [18]: 30.3 µM (inactive)

SMILES: CCCCCCn1c(SC)nc(COC(=O)NC)c1COC(=O)NC
- GI50 [1]: 20.1 µM (inactive)
- GI50 [2]: 17.7 µM (inactive)
- GI50 [3]: 19.2 µM (inactive)
- GI50 [19]: 25.8 µM (inactive)
- GI50 [5]: 32.4 µM
- GI50 [6]: 17.9 µM (inactive)
- GI50 [7]: 20.4 µM (inactive)
- GI50 [8]: 17.2 µM (inactive)
- GI50 [9]: 21.3 µM (inactive)
- GI50 [10]: 19.5 µM (inactive)
- GI50 [11]: 17.4 µM (inactive)
- GI50 [12]: 15.7 µM (inactive)
- GI50 [13]: 22.4 µM (inactive)
- GI50 [15]: 14.6 µM (inactive)
- GI50 [16]: 15.8 µM (inactive)
- GI50 [20]: 17.7 µM (inactive)
- GI50 [17]: 15.1 µM (inactive)
- GI50 [18]: 19.3 µM (inactive)

SMILES: CC[C@@]1(O)C[C@H](OC2CC(N(C)C)C(OC3CC(O)C(OC4CCC(=O)C(C)O4)C(C)O3)C(C)O2)c2c(cc3c(c2O)C(=O)c2c(O)ccc(O)c2C3=O)[C@H]1C(=O)OC (some centres not stated)
- GI50 [2]: 0.000343 µM (active)
- GI50 [3]: 5.2e-05 µM (active)
- GI50 [4]: 6.35e-05 µM (active)
- GI50 [19]: 7.87e-05 µM (active)
- GI50 [5]: 9.75e-05 µM
- GI50 [6]: 0.000233 µM (active)
- GI50 [7]: 0.00366 µM (active)
- GI50 [8]: 5.83e-05 µM (active)
- GI50 [9]: 2e-05 µM (active)
- GI50 [10]: 0.00113 µM (active)
- GI50 [11]: 0.00233 µM (active)
- GI50 [12]: < 1e-05 µM (active)
- GI50 [13]: 7.83e-05 µM (active)
- GI50 [15]: 0.000132 µM (active)
- GI50 [16]: 7.55e-05 µM (active)
- GI50 [20]: 0.000773 µM (active)
- GI50 [17]: 0.000395 µM (active)
- GI50 [18]: 8.83e-05 µM (active)

SMILES: Cc1cc(-c2cscn2)c(O)c([N+](=O)[O-])c1
- GI50 [1]: 21.4 µM (inactive)
- GI50 [3]: 75.7 µM (inactive)
- GI50 [19]: 85.1 µM (inactive)
- GI50 [5]: 38.4 µM
- GI50 [7]: 90.8 µM (inactive)
- GI50 [9]: 29.4 µM (inactive)
- GI50 [10]: 77.6 µM (inactive)
- GI50 [11]: 48.3 µM (inactive)
- GI50 [12]: 43 µM (inactive)
- GI50 [13]: 52.6 µM (inactive)
- GI50 [14]: 81.3 µM (inactive)
- GI50 [16]: 28.3 µM (inactive)
- GI50 [17]: 41.4 µM (inactive)
- GI50 [18]: 34.2 µM (inactive)

SMILES: O=C1CNc2cc(N3CCOCC3)ccc2N1
- GI50 [2]: > 100 µM (inactive)
- GI50 [3]: > 100 µM (inactive)
- GI50 [4]: > 100 µM (inactive)
- GI50 [19]: > 100 µM (inactive)
- GI50 [5]: > 100 µM
- GI50 [6]: > 100 µM (inactive)
- GI50 [7]: 57.3 µM (inactive)
- GI50 [8]: > 100 µM (inactive)
- GI50 [9]: > 100 µM (inactive)
- GI50 [10]: > 100 µM (inactive)
- GI50 [11]: > 100 µM (inactive)
- GI50 [12]: > 100 µM (inactive)
- GI50 [13]: > 100 µM (inactive)
- GI50 [14]: > 100 µM (inactive)
- GI50 [15]: > 100 µM (inactive)
- GI50 [16]: > 100 µM (inactive)
- GI50 [20]: > 100 µM (inactive)
- GI50 [17]: > 100 µM (inactive)
- GI50 [18]: > 100 µM (inactive)

SMILES: CN(C)/C=N/c1ccc2c3c(cccc13)-c1ccccc1-2
- GI50 [1]: 16.8 µM (inactive)
- GI50 [2]: 17.7 µM (inactive)
- GI50 [4]: 13.4 µM (inactive)
- GI50 [19]: 17.1 µM (inactive)
- GI50 [5]: 11.8 µM
- GI50 [6]: 14.9 µM (inactive)
- GI50 [7]: 10.3 µM (inactive)
- GI50 [8]: 10.6 µM (inactive)
- GI50 [9]: 14.5 µM (inactive)
- GI50 [10]: 17 µM (inactive)
- GI50 [11]: 14.6 µM (inactive)
- GI50 [13]: 10.4 µM (inactive)
- GI50 [15]: 12.5 µM (inactive)
- GI50 [16]: 16.6 µM (inactive)
- GI50 [20]: 15 µM (inactive)
- GI50 [17]: 12.8 µM (inactive)
- GI50 [18]: 10.2 µM (inactive)

SMILES: CC(=O)O[C@H]1CC2C(C3CCC(C(C)CCC(N)=O)[C@]31C)[C@H](OC(C)=O)C[C@@H]1CC3(CC[C@]21C)OOC1(CC[C@]2(C)C4C[C@H](OC(C)=O)[C@]5(C)C(C(C)CCC(N)=O)CCC5C4[C@H](OC(C)=O)C[C@@H]2C1)OO3 (some centres not stated)
- GI50 [1]: 1.58 µM (inactive)
- GI50 [3]: 2.63 µM (inactive)
- GI50 [4]: 1.6 µM (inactive)
- GI50 [19]: 1.84 µM (inactive)
- GI50 [5]: 1.48 µM
- GI50 [6]: 1.42 µM (inactive)
- GI50 [7]: 2.17 µM (inactive)
- GI50 [8]: 1.33 µM (inactive)
- GI50 [9]: 1.4 µM (inactive)
- GI50 [10]: 1.2 µM (inactive)
- GI50 [11]: 1.55 µM (inactive)
- GI50 [12]: 1.88 µM (inactive)
- GI50 [13]: 1.22 µM (inactive)
- GI50 [14]: 0.966 µM (active)
- GI50 [15]: 1.75 µM (inactive)
- GI50 [16]: 1.11 µM (active)
- GI50 [17]: 1.41 µM (inactive)
- GI50 [18]: 1.76 µM (inactive)

SMILES: C/C(=N\N=C(/S)SCc1ccccc1)c1ccccn1
- GI50 [1]: < 0.01 µM (active)
- GI50 [3]: < 0.01 µM (active)
- GI50 [4]: < 0.0192 µM (active)
- GI50 [19]: 1.27 µM (inactive)
- GI50 [5]: < 0.01 µM
- GI50 [6]: < 0.01 µM (active)
- GI50 [7]: 2.62 µM (inactive)
- GI50 [8]: < 0.01 µM (active)
- GI50 [10]: 1.13 µM (inactive)
- GI50 [11]: < 0.01 µM (active)
- GI50 [12]: < 0.0504 µM (active)
- GI50 [13]: < 0.01 µM (active)
- GI50 [14]: 0.0476 µM (active)
- GI50 [15]: 0.184 µM (active)
- GI50 [16]: < 0.01 µM (active)
- GI50 [17]: < 0.01 µM (active)
- GI50 [18]: < 0.01 µM (active)

SMILES: N=C(N)c1ccc(-c2ccc(-c3ccc(C(=N)N)cc3)o2)cc1 [FURAMIDINE HYDROCHLORIDE]
- GI50 [1]: 17.5 µM (inactive)
- GI50 [2]: 20.6 µM (inactive)
- GI50 [3]: 28.5 µM (inactive)
- GI50 [4]: 16.6 µM (inactive)
- GI50 [19]: 23.8 µM (inactive)
- GI50 [5]: 40.9 µM
- GI50 [6]: > 100 µM (inactive)
- GI50 [7]: 21.4 µM (inactive)
- GI50 [8]: 69.2 µM (inactive)
- GI50 [10]: 37.5 µM (inactive)
- GI50 [11]: 33.7 µM (inactive)
- GI50 [12]: 54.3 µM (inactive)
- GI50 [13]: 18.6 µM (inactive)
- GI50 [15]: 45.3 µM (inactive)
- GI50 [16]: 12.4 µM (inactive)
- GI50 [20]: 23.4 µM (inactive)
- GI50 [17]: 39.5 µM (inactive)
- GI50 [18]: 22.8 µM (inactive)
